Results reported in patent US5208237A, “7-oxypropylsulfonamido-imidazo[4,5-b]quinolin-2-ones” (Bristol-Meyers Squibb Company, priority 1992, dated 1993).
Values after ≈ are worked out from the molar mass of the structure shown. Structures can show the parent of a compound that is named as a salt. Where two headings read alike, the source gives them in different places.

Legend:
human blood platelets = assay: In vitro inhibition of ADP-induced human platelet aggregation in platelet-rich plasma (aggregometer method of Born); conditions: for IC50: Homo sapiens, Platelet, read-out: IC50 vs ADP in human PRP, human PRP, 3 min preincubation at about 37° C., final ADP 5.86 mM (so in the source)
Method: The aggregometer method of Born, G. V. R., J. Physiol., (London), 162, 67-68, (1962) as modified by Mustard, J. F., et al., J. Lab. Clin. Med., 64, 548-599, (1964) was used to assess the in vitro activity of the various compounds as to the inhibition of adenosine diphosphate (ADP) and collagen-induced platelet aggregation. The human volunteer donor's arm is cleansed with 70% ethyl alcohol. A sterile 20 ml syringe and needle are used to withdraw 20 ml of blood. The blood is immediately added to a test tube containing 3.8% sodium citrate to prevent clotting (1 part citrate to 9 parts blood).
Platelet rich plasma (PRP) was separated by centrifugation for 10 minutes at 1000 rpm (140xg) from citrated (3.8%) human blood. All glassware used for preparation of PRP is silicon treated. ADP in final concentration of 0.5 μg/mL or 0.05 mL of a collagen suspension prepared according to the method described by Evans, G., et al., J. Exp. Med., 128, 877-894, (1968) was used to induce aggregation. The various compounds tested were dissolved in dimethylsulfoxide (DMSO) so that 5 μl added to the platelet rich plasma would yield the desired test concentration. Vehicle control trials were done and compared with aggregation induced in platelet rich plasma containing various concentrations of the test compounds. Dose response curves were obtained and Inhibitor Concentration (IC50) values calculated.
The test compounds were incubated at about 37° C. in PRP for about 3 minutes prior to the addition of sufficient ADP to provide a final ADP concentration of 5.86 mM.

Aqueous solubility = format: physicochemical; conditions: water
[1] = free base (* footnote), read-out: Aqueous Solubility of Free Base
[2] = not marked as free base, read-out: Aqueous Solubility

| SMILES | IC50 (human blood platelets) [µg/mL] | solubility (Aqueous solubility; [1]) [µg/mL] | IC50 vs ADP in human PRP (human blood platelets; human PRP, 3 min preincubation at about 37° C., final ADP 5.86 mM (so in the source), dihydrochloride) [µg/mL] | solubility (Aqueous solubility; [2]) [µg/mL] |
| --- | --- | --- | --- | --- |
| O=CN1CCN(S(=O)(=O)CCCOc2ccc3nc4[nH]c(=O)[nH]c4cc3c2)CC1 [Compound 7, 3-[[(2,3-Dihydro-2-oxo-1H-imidazo[4,5-b]quinolin-7-yl)oxy]propyl]sulfonyll-1-piperazinecarboxaldehyde] | 5.6 (≈ 13.4 µM) | < 1000 | – | – |
| O=c1[nH]c2cc3cc(OCCCS(=O)(=O)N4CCNCC4)ccc3nc2[nH]1 [Compound 8, 1-[[3-[(2,3-Dihydro-2-oxo-1H-imidazo[4,5-b]quinolin-7-yl)oxy]propyl]sulfonyl]piperazine] | 7.2 (≈ 18.4 µM) | ~1000 (≈ 2550 µM) | – | – |
| O=c1[nH]c2cc3cc(OCCCS(=O)(=O)N4CCN(Cc5ccccc5)CC4)ccc3nc2[nH]1 [Compound 9c] | 0.059 (≈ 0.123 µM) | ~1000 (≈ 2080 µM) | – | – |
| O=c1[nH]c2cc3cc(OCCCS(=O)(=O)N4CCNCC4)ccc3nc2[nH]1 [Compound 10a, 1-[[3-[(2,3-Dihydro-2-oxo-1H-imidazo[4-5-b]quinolin-7-yl)oxy]propyl]sulfonyl]piperazine dihydrochloride] | – | – | 6.4 | > 20000 |
| Cl.Cl.O=c1[nH]c2cc3cc(OCCCS(=O)(=O)N4CCN(Cc5ccccc5)CC4)ccc3nc2[nH]1 [Compound 10c, 1-[[3-[(2,3-Dihydro-2-oxo-1H-imidazo[4,5-b]quinolin-7-yl)oxy]propyl]sulfonyl]-4-(phenylmethyl)piperazine dihydrochloride] | 0.039 | – | – | > 20000 |
| Cl.Cl.O=c1[nH]c2cc3cc(OCCCS(=O)(=O)N4CCN(Cc5ccc(F)cc5)CC4)ccc3nc2[nH]1 [Compound 10d, 1-[[3-[(2,3-Dihydro-2-oxo-1H-imidazo[4,5-b]quinolin-7-yl)oxy]propyl]sulfonyl]-4-(4-fluorophenylmethyl) piperazine dihydrochloride] | 0.16 | – | – | > 20000 |
| Cl.Cl.O=c1[nH]c2cc3cc(OCCCS(=O)(=O)N4CCN(Cc5ccc(Cl)cc5)CC4)ccc3nc2[nH]1 [Compound 10e, 1-[[3-[(2,3-Dihydro-2-oxo-1H-imidazo[4,5-b]quinolin-7-yl)oxy]propyl]sulfonyl]-4-(4-chlorophenylmethyl) piperazine dihydrochloride] | 0.32 | – | – | > 20000 |
| COc1ccc(CN2CCN(S(=O)(=O)CCCOc3ccc4nc5[nH]c(=O)[nH]c5cc4c3)CC2)cc1 [Compound 10f, 1-[[3-[(2,3-Dihydro-2-oxo-1H-imidazo[4,5-b]quinolin-7-yl)oxy]propyl]sulfonyl]-4-[(4-methoxyphenylmethyl)piperazinedihydrochloride] | 0.27 | – | – | > 20000 |
| Cl.Cl.O=c1[nH]c2cc3cc(OCCCS(=O)(=O)N4CCN(CC5CCCCC5)CC4)ccc3nc2[nH]1 [Compound 10g, 1-[[3-[(2,3-Dihydro-2-oxo-1H-imidazo[4,5-b]quinolin-7-yl)oxy]propyl]sulfonyl]-4-(cyclohexylmethyl) piperazine dihydrochloride] | 0.064 | – | – | > 20000 |
| Cl.Cl.O=c1[nH]c2cc3cc(OCCCS(=O)(=O)N4CCN(c5nc6ccccc6o5)CC4)ccc3nc2[nH]1 [Compound 10h, 1-(Benzoxazol-2-yl)-4-[[3-[(2,3-dihydro-2-oxo-1H-imidazo[4,5-b]quinolin-7-yl)oxy]propyl]sulfonyl]piperazine dihydrochloride] | 1.4 | – | – | > 20000 |
| Cl.O=c1[nH]c2cc3cc(OCCCS(=O)(=O)N4CCN(c5nc6ccccc6s5)CC4)ccc3nc2[nH]1 [Compound 10i, 1-(Benzothiazol-2-yl)-4-[[3-[(2,3-dihydro-2-oxo-1H-imidazo[4,5-b]quinolin-7-yl)oxy]propyl]sulfonyl]piperazine hydrochloride] | 2.8 | – | – | ~1000 |
| Cl.Cl.O=c1[nH]c2cc3cc(OCCCS(=O)(=O)N4CCN(CCC5CCCCC5)CC4)ccc3nc2[nH]1 [Compound 10j, 1-[[3-[(2,3-Dihydro-2-oxo-1H-imidazo[4,5-b]quinolin-7-yl)oxy]propyl]sulfonyl]-4-(2-cyclohexylethyl) piperazine dihydrochloride] | 1.2 | – | – | < 5000 |
| O=c1[nH]c2cc3cc(OCCCS(=O)(=O)N4CCN(CCc5ccccc5)CC4)ccc3nc2[nH]1 [Compound 10k, 3-[[(2,3-Dihydro-2-oxo-1H-imidazo[4,5-b]quinolin-7-yl)oxy]propyl]sulfonyl]-4-(2-phenylethyl)piperazine dihydrochloride] | 0.6 | – | – | < 10000 |
| CCC(CC)CN1CCN(S(=O)(=O)CCCOc2ccc3nc4[nH]c(=O)[nH]c4cc3c2)CC1 [Compound 10l, 1-[[3-(2,3-Dihydro-2-oxo-1H-imidazo-[4,5-b]quinolin-7-yl)oxy]propyl]sulfonyl]-4-(2-ethylbut-1-yl)piperazine dihydrochloride] | 0.09 | – | – | > 10000 |
| Cl.Cl.O=c1[nH]c2cc3cc(OCCCS(=O)(=O)N4CCN(Cc5cccc(C(F)(F)F)c5)CC4)ccc3nc2[nH]1 [Compound 10m, 1-[[3-[(2,3-Dihydro-2-oxo-1H-imidazo[4,5-b]quinolin-7-yl)oxy]propyl]sulfonyl]-4-[(3-trifluoromethylphenyl)methyl]piperazine dihydrochloride] | 0.2 | – | – | ~2000 |
